The results in this text go back to ChEMBL document CHEMBL1909626, “4-N-Hydroxy-4-[1-(sulfonyl)piperidin-4-yl]-butyramides as HDAC inhibitors” (Bioorg Med Chem Lett, 2011).

Structures are written as SMILES.

Series [1] addresses T1, Histone deacetylase (Homo sapiens) (UniProt Q13547+O15379+Q9UBN7+Q92769+Q9UQL6+Q8WUI4+Q9BY41+Q96DB2+P56524+Q9UKV0+Q969S8). Particulars: HeLa, at 0.1 µM.
Description: Inhibition of HDAC in human HeLa cell extract assessed as fluorophore release at 0.1 uM by fluorescence spectrophotometry
The target of series [2] is T1, Histone deacetylase (Homo sapiens). Particulars: HeLa, at 1 µM.
Description: Inhibition of HDAC in human HeLa cell extract assessed as fluorophore release at 1 uM by fluorescence spectrophotometry
Series [3] deals with Histone deacetylase. Kind of series: Inhibition of HDAC in human HeLa cell extract assessed as fluorophore release by fluorescence spectrophotometry. Format: protein assay.
For series [4], the system named is HCT-116. Kind of series: Growth inhibition of human HCT116 cells after 5 days by alamar blue assay. Format: functional. The settings on record: HCT-116, 120 h.
In series [5] the target is T1, Histone deacetylase (Homo sapiens). Particulars: HeLa, at 10 µM.
Description: Inhibition of HDAC in human HeLa cell extract assessed as fluorophore release at 10 uM by fluorescence spectrophotometry
Series [6] deals with Liver. Kind of series: Metabolic stability in rat liver S9 fraction assessed as compound remaining. Format: ADME, subcellular.
Series [7] can be described thus: Fraction unbound in plasma. Format: ADME, cell-free.

`O=C(CCCC1CCN(S(=O)(=O)c2cccc(C(F)(F)F)c2)CC1)NO`: the inhibition was 13% in series [1] and 57% in series [2].

Consider `O=C(CCCC1CCN(S(=O)(=O)NCc2ccccc2)CC1)NO`, for which the figures for the inhibition in series [1] and in series [2] were 29% and 65%, respectively.

With `O=C(CCCC1CCN(S(=O)(=O)c2ccccc2Cl)CC1)NO`, in series [3], the IC50 came to 173 nM. Also, the GI50 in series [4] worked out at 2800 nM. In addition, the inhibition in series [1] was determined as 42%; in series [2], 77%; in series [5], 86%.

As for `O=C(CCCC1CCN(S(=O)(=O)c2ccc3c(c2)OCCO3)CC1)NO`, the inhibition in series [1] was determined as 29%; in series [2], 68%.

In the case of `O=C(CCCC1CCN(S(=O)(=O)c2ccc(F)cc2)CC1)NO`, the figures for the inhibition in series [1] and in series [2] were 21% and 60%, respectively.

As to `O=C(CCCC1CCN(S(=O)(=O)c2cccc(-c3cnco3)c2)CC1)NO`, in series [3], the IC50 was determined as 213 nM. Also, the figures for the inhibition in series [1], in series [2] and in series [5] were 38%, 75% and 85%, respectively.

For `CN1CCOc2cc(S(=O)(=O)N3CCC(CCCC(=O)NO)CC3)ccc21`, the inhibition in series [1] worked out at 32%; in series [2] it was 71%.

As for `O=C(CCCC1CCN(S(=O)(=O)Nc2ccccc2)CC1)NO`, the GI50 in series [4] was determined as 2000 nM. For the same compound, the inhibition is 40% in series [1] and 70% in series [2].

For `Cc1ccccc1S(=O)(=O)N1CCC(CCCC(=O)NO)CC1`, the inhibition was determined as 29% in series [1] and 69% in series [2].

In the case of `Cc1ccc(S(=O)(=O)N2CCC(CCCC(=O)NO)CC2)cc1`, the inhibition is 28% in series [1] and 71% in series [2].

Regarding `O=C(CCCC1CCN(S(=O)(=O)c2ccccc2)CC1)NO`, the GI50 in series [4] came out at 2700 nM. Also, the inhibition was 23% in series [1], 63% in series [2] and 84% in series [5].

As for `COc1cccc(S(=O)(=O)N2CCC(CCCC(=O)NO)CC2)c1`, the results for the inhibition in series [1], in series [2] and in series [5] were 28%, 67% and 83%, respectively.

In the case of `Cc1cc(S(=O)(=O)N2CCC(CCCC(=O)NO)CC2)cc2ccccc12`, the IC50 in series [3] is 124 nM. In series [4], the GI50 was determined as 17300 nM. Further, the inhibition in series [1] was 48%; in series [2], 82%; in series [5] it was 86%.

For `O=C(CCCC1CCN(S(=O)(=O)c2ccc3ccccc3c2)CC1)NO`, the IC50 in series [3] came out at 128 nM. Besides, the GI50 in series [4] was determined as 1900 nM. Moreover, the Stability in series [6] is reported as 2%. For the same compound, the fraction unbound in series [7] was determined as 0.02. Besides, the inhibition is 53% in series [1], 68% in series [2] and 86% in series [5].

As for `COc1ccc(S(=O)(=O)N2CCC(CCCC(=O)NO)CC2)c(OC)c1`, the inhibition in series [1] came out at 22%; in series [2], 62%; in series [5], 83%.

Regarding `O=C(CCCC1CCN(S(=O)(=O)c2ccc(C(F)(F)F)cc2)CC1)NO`, the inhibition in series [1] stood at 15%; in series [2], 55%.

`O=C(CCCC1CCN(S(=O)(=O)c2ccccc2O)CC1)NO`: the inhibition in series [1] came out at 37%; in series [2], 75%; in series [5] it was 84%.

As to `CC(C)c1ccc(S(=O)(=O)N2CCC(CCCC(=O)NO)CC2)cc1`, in series [3], the IC50 is 537 nM. Moreover, the inhibition amounted to 18% in series [1], 66% in series [2] and 84% in series [5].

Take `O=C(CCCC1CCN(S(=O)(=O)c2cccc(Cl)c2)CC1)NO`: the figures for the inhibition in series [1] and in series [2] were 4% and 40%, respectively.

For the compound `O=C(CCCC1CCN(S(=O)(=O)c2ccccc2C(F)(F)F)CC1)NO`, the values for the inhibition in series [1] and in series [2] were 30% and 69%, respectively.

Regarding `O=C(CCCC1CCN(S(=O)(=O)c2ccc3ncsc3c2)CC1)NO`, the inhibition was found to be 26% in series [1], 69% in series [2] and 84% in series [5].

With `CC(C)(C)c1ccc(S(=O)(=O)N2CCC(CCCC(=O)NO)CC2)cc1`, the inhibition amounted to 9% in series [1] and 51% in series [2].

Turning to `Cc1cc(C)cc(S(=O)(=O)N2CCC(CCCC(=O)NO)CC2)c1`, the inhibition is 22% in series [1], 65% in series [2] and 86% in series [5].

Turning to `O=C(CCCC1CCN(S(=O)(=O)c2ccc3c(c2)CCO3)CC1)NO`, the values for the inhibition in series [1] and in series [2] were 36% and 72%, respectively.

As for `O=C(/C=C/CC1CCN(S(=O)(=O)c2ccccc2)CC1)NO`, the inhibition in series [1] was 19%; in series [2] it was 48%; in series [5] it was 78%.

Regarding `CN(c1ccccc1)S(=O)(=O)N1CCC(CCCC(=O)NO)CC1`, the values for the inhibition in series [1] and in series [2] were 19% and 48%, respectively.

In turn, `O=C(CCCC1CCN(S(=O)(=O)Cc2ccccc2)CC1)NO` showed a GI50 in series [4] of 3200 nM. Besides, the inhibition was found to be 17% in series [1], 58% in series [2] and 71% in series [5].

`Cc1cccc(S(=O)(=O)N2CCC(CCCC(=O)NO)CC2)c1`: the inhibition in series [1] is 24%; in series [2], 61%; in series [5], 83%.

Consider `COc1ccc(S(=O)(=O)N2CCC(CCCC(=O)NO)CC2)cc1OC`, for which the IC50 in series [3] worked out at 317 nM. The inhibition in series [1] was 31%; in series [2], 71%; in series [5], 84%.

In the case of `CC1(C)CCc2cc(S(=O)(=O)N3CCC(CCCC(=O)NO)CC3)ccc2O1`, the inhibition in series [1] was found to be 30%; in series [2] it was 75%; in series [5], 86%.

As for `O=C(CCCC1CCN(S(=O)(=O)c2cccc3ccccc23)CC1)NO`, in series [3], the IC50 came to 181 nM. Also, in series [4], the GI50 was 1040 nM. Further, the Stability in series [6] amounted to 14%. In series [7], this compound returned a fraction unbound of 0.03. Also, the results for the inhibition in series [1], in series [2] and in series [5] were 40%, 80% and 74%, respectively.

Turning to `O=C(CCCC1CCN(S(=O)(=O)c2ccc(-c3ccccc3)cc2)CC1)NO`, the inhibition in series [1] came out at 20%; in series [2], 44%; in series [5], 80%.

On to `O=C(CCCC1CCN(S(=O)(=O)c2ccc(-c3cnco3)cc2)CC1)NO`, for which the inhibition in series [1] stood at 35%; in series [2], 74%.

Regarding `CN(Cc1ccccc1)S(=O)(=O)N1CCC(CCCC(=O)NO)CC1`, the inhibition was determined as 29% in series [1] and 56% in series [2].

For the compound `Cc1cc(C)c(S(=O)(=O)N2CCC(CCCC(=O)NO)CC2)c(C)c1`, the inhibition in series [1] came to 32%; in series [2], 75%.

As for `O=C(CCCC1CCN(S(=O)(=O)c2ccc(Cl)cc2)CC1)NO`, the inhibition in series [1] is 25%; in series [2], 62%.
